The structures appear in SMILES notation.

In general, IC50 refers to the concentration that gives 50% inhibition. Read a low IC50 as inhibition by little substance.

Format in all cases: functional, cell-based
Assay [1] has as its system BGC-823. The assay is described as follows: Cytotoxicity against human BGC823 cells after 72 hrs by MTT assay. The settings on record: BGC-823, 72 h.
In assay [2] the test system is A549. The experiment in a line: Cytotoxicity against human A549 cells after 72 hrs by MTT assay. Conditions: A549, 72 h.
Assay [3] concerns A2780. The assay is described as follows: Cytotoxicity against human A2780 cells after 72 hrs by MTT assay. Conditions: A2780, 72 h. (In general: Tetrazolium assays rely on reduction of a dye to a coloured formazan, in cell work by metabolically active cells.)
The subject of assay [4] is HCT-8. The experiment in a line: Cytotoxicity against human HCT8 cells after 72 hrs by MTT assay. The settings on record: HCT-8, 72 h.
Assay [5] has as its system Bel-7402. The assay is described as follows: Cytotoxicity against human Bel7402 cells after 72 hrs by MTT assay. The settings on record: Bel-7402, 72 h.

For `CS[C@@]1(CO)C(=O)N2[C@H]3N(C=O)c4ccccc4[C@@]3(c3c[nH]c4ccccc34)[C@H](O)[C@]2(SC)C(=O)N1C` [OIDIOPERAZINE A], the IC50 in assay [1], in assay [2], in assay [3], in assay [4] and in assay [5] was more than 10000 nM throughout.

Consider `COC1(CO)NC(=O)/C(=C/c2c[nH]c3ccccc23)NC1=O` (stereo not drawn) [OIDIOPERAZINE C], for which the IC50 in assay [1], in assay [2], in assay [3], in assay [4] and in assay [5] was more than 10000 nM in each case.

Regarding `O=C1N[C@@H](Cc2c[nH]c3ccccc23)C(=O)N[C@H]1CO`, the IC50 in assay [1], in assay [2], in assay [3], in assay [4] and in assay [5] was more than 10000 nM each time.

Regarding `CN1C(=O)[C@]23SS[C@@]1(CO)C(=O)N2[C@H]1Nc2ccccc2C1([C@@]12c4ccccc4N[C@@H]1N1C(=O)[C@]4(CO)SS[C@]1(C(=O)N4C)[C@H]2O)[C@@H]3O` (stereo partly drawn) [MELINACIDIN IV], the IC50 in assay [1] was 47 nM; in assay [2], 22 nM; in assay [3] it was 54 nM; in assay [4] it was 52 nM; in assay [5], 5 nM.

As for `CC(=O)O[C@H]1C(=O)[C@@]2(C)[C@H]([C@H](OC(=O)c3ccccc3)[C@]3(O)C[C@H](OC(=O)[C@H](O)[C@@H](NC(=O)c4ccccc4)c4ccccc4)C(C)=C1C3(C)C)[C@]1(OC(C)=O)CO[C@@H]1C[C@@H]2O` [PACLITAXEL], the results for the half-inhibitory concentration (IC50) in assay [1], in assay [3] and in assay [5] were less than 1 nM, less than 1 nM and 6 nM, respectively.

As to `CS[C@]1(CO)NC(=O)[C@](Cc2c[nH]c3ccccc23)(SC)NC1=O` [CHETOSEMINUDIN C], the IC50 in assay [1], in assay [2], in assay [3], in assay [4] and in assay [5] was more than 10000 nM throughout.

Take `CS[C@@]1(CO)C(=O)N2[C@H]3Nc4ccccc4C3([C@@]34c5ccccc5N[C@@H]3N3C(=O)[C@](CO)(SC)N(C)C(=O)[C@@]3(SC)[C@H]4O)[C@H](O)[C@]2(SC)C(=O)N1C` (stereo partly drawn) [CHETRACIN D]: the IC50 in assay [1] is 1830 nM; in assay [2], 140 nM; in assay [3] it was 1650 nM; in assay [4], 1060 nM; in assay [5] it was 810 nM.

For the compound `CN1C(=O)[C@]23SS[C@@]1(CO)C(=O)N2[C@H]1Nc2ccccc2C1([C@@]12c4ccccc4N[C@@H]1N1C(=O)[C@]4(CO)SSS[C@]1(C(=O)N4C)[C@H]2O)[C@@H]3O` (stereo partly drawn) [CHETRACIN B], the IC50 stood at 11 nM in assay [1]; 22 nM in assay [2]; 28 nM in assay [3]; 13 nM in assay [4]; 3 nM in assay [5].

For `CN1C(=O)[C@]23SSS[C@]1(CO)C(=O)N2[C@H]1Nc2ccccc2[C@@]1(c1c[nH]c2ccccc12)[C@@H]3O`, the IC50 amounted to 1460 nM in assay [1]; 1530 nM in assay [2]; 420 nM in assay [3]; 1180 nM in assay [4]; 750 nM in assay [5].

For `C=C1NC(=O)C(Cc2c[nH]c3ccccc23)(OC)N(OC)C1=O` (stereo not drawn) [OIDIOPERAZINE D], the IC50 in assay [1], in assay [2], in assay [3], in assay [4] and in assay [5] was more than 10000 nM in each case.

`CON1C(=O)C(CO)NC(=O)C1(O)Cc1c[nH]c2ccccc12` (stereo not drawn) [OIDIOPERAZINE B]: the IC50 in assay [1], in assay [2], in assay [3], in assay [4] and in assay [5] was more than 10000 nM each time.

On to `CN1C(=O)[C@]23SS[C@]1(CO)C(=O)N2[C@H]1Nc2ccccc2[C@@]1(c1c[nH]c2ccccc12)[C@@H]3O` [T988 C], for which the IC50 came to 670 nM in assay [1]; 1240 nM in assay [2]; 480 nM in assay [3]; 700 nM in assay [4]; 550 nM in assay [5].

In the case of `CN1C(=O)[C@]23SSS[C@@]1(CO)C(=O)N2[C@H]1Nc2ccccc2C1([C@@]12c4ccccc4N[C@@H]1N1C(=O)[C@]4(CO)SSS[C@]1(C(=O)N4C)[C@H]2O)[C@@H]3O` (stereo partly drawn) [CHETRACIN C], the IC50 in assay [1] came out at 700 nM; in assay [2] it was 720 nM; in assay [3], 580 nM; in assay [4], 490 nM; in assay [5], 380 nM.

Regarding `CS[C@@]1(CO)C(=O)N2[C@H]3Nc4ccccc4[C@@]3(c3c[nH]c4ccccc34)[C@H](O)[C@]2(SC)C(=O)N1C` [T988 B], the 50% inhibitory concentration (IC50) in assay [1], in assay [2], in assay [3], in assay [4] and in assay [5] was more than 10000 nM each time.

Values taken from ChEMBL document CHEMBL2046435, “Cytotoxic metabolites from the antarctic psychrophilic fungus Oidiodendron truncatum” (J Nat Prod, 2012).
